Assay [1] addresses T1, Coelenterazine h 2-monooxygenase (Renilla reniformis, UniProt P27652).
T1 sequence (P27652 whole entry): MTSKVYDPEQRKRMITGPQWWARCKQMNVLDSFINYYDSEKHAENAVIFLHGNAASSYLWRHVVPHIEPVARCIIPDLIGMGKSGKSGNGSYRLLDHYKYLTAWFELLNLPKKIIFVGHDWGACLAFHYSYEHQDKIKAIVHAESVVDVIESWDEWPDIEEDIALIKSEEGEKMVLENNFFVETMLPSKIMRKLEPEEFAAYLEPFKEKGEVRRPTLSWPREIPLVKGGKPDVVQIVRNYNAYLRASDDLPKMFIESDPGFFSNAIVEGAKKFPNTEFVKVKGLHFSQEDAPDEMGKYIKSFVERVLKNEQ
Description: GSK_PKIS: Inhibition of Sea Pansy Luciferase (Data from PubChem: AID 652015) [NIH NCATS]

Assay [2] deals with Luciferin 4-monooxygenase (Photinus pyralis, UniProt P08659).
Luciferin 4-monooxygenase, sequence (P08659 whole entry): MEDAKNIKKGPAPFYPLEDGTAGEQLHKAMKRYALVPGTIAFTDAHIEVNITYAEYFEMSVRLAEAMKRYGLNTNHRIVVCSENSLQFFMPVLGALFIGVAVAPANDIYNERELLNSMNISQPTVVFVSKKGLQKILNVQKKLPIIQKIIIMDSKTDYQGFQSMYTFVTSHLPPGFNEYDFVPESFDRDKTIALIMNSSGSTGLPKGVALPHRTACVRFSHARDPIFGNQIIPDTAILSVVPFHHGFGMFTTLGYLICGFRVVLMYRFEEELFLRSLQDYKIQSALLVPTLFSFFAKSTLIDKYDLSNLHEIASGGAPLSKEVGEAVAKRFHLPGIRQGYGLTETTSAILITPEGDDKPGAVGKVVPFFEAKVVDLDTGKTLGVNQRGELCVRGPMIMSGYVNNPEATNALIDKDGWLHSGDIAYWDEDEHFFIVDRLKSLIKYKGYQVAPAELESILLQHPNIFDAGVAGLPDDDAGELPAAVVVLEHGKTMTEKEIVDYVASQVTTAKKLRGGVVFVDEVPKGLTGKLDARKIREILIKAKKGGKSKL
Description: GSK_PKIS: Inhibition of Firefly Luciferase (Data from PubChem: AID 652016) [NIH NCATS]

As for `COc1ccc(-c2nn3ncccc3c2-c2ccnc(Nc3ccc(Cl)c(C(F)(F)F)c3)n2)cc1` [GW829115X], the AC50 – broadly, the midpoint of the concentration-response curve, whichever way the signal moves – was “Phenotype: Activator; Curve_Description: None” in assay [1] and “Phenotype: Inactive; Curve_Description: None” in assay [2].
The like results for `O=C1NC(=O)C(c2cccc(Cl)c2)=C1Nc1ccc(Cl)c(C(=O)O)c1` were, in that order, “Phenotype: Inactive; Curve_Description: None” and “Phenotype: Inactive; Curve_Description: None”.
As for `Cc1nnc(-c2ccc(C)c(-c3ccc(C(=O)NCc4ccc(Cl)cc4)cc3)c2)o1` [GW708893X], the AC50 result in assay [1] and in assay [2] was “Phenotype: Inactive; Curve_Description: None” throughout.
`CCc1nccc2c1nc(-c1nonc1N)n2CC`: the AC50 entry in assay [1] and in assay [2] was “Phenotype: Inactive; Curve_Description: None” throughout.
As for `CN1CCC(C(=O)Nc2n[nH]c3nc(-c4ccc(O)cc4)c(Br)cc23)CC1.O=C(O)/C=C\C(=O)O`, the AC50 result in assay [1] and in assay [2] was “Phenotype: Inactive; Curve_Description: None” in each case.
Consider `COc1ccccc1Nc1ncc(-c2ccccc2)o1.Cl` [GW577921A], for which the values for the concentration at half-maximal activity (AC50) result in assay [1] and in assay [2] (read-out: AC50) were “Phenotype: Inactive; Curve_Description: None” and 1.03 µM, respectively.
As to `Nc1ncnc2occ(-c3ccc(NC(=O)Nc4cc(C(F)(F)F)cc(C(F)(F)F)c4)cc3)c12` [GW795486X], the values for the AC50 in assay [1] (read-out: AC50) and in assay [2] were 16.3 µM and “Phenotype: Inactive; Curve_Description: None”, respectively.
The like results for `CCn1c(-c2nonc2N)nc2c(C#CC(C)(C)O)nc(O[C@@H](CN)c3ccccc3)cc21.O=C(O)C(F)(F)F` [GSK-1007102B] were, in that order, 29.1 µM and “Phenotype: Inactive; Curve_Description: None”.
In the case of `c1cc(-c2cnn3nc(N4CCOCC4)ccc23)nc(NC2CC2)n1` [GW708336X], the values for the half-maximal activity concentration (AC50) result in assay [1] and in assay [2] (read-out: AC50) were “Phenotype: Inactive; Curve_Description: None” and 4.61 µM, respectively.
The like results for `O=C(O)C(F)(F)F.[O-][S+]1CCN(Cc2ccc(-c3ccc4ncnc(Nc5ccc(OCc6cccc(F)c6)c(Cl)c5)c4c3)o2)CC1` [GW576609A] were, in that order, “Phenotype: Inactive; Curve_Description: None” and 18.3 µM.
For `CS(=O)(=O)CCNCc1nc(-c2ccc3ncnc(Nc4ccc(OCc5cccc(C(F)(F)F)c5)cc4)c3c2)cs1.Cl` [GW569530A], the AC50 entry in assay [1] and in assay [2] was “Phenotype: Inactive; Curve_Description: None” each time.
For the compound `COc1cc2ncn(-c3cc(OCc4cccs4)c(C(N)=O)s3)c2cc1OC` [GSK-312948A], the concentration at half-maximal activity (AC50) in assay [1] (read-out: AC50) was 9.19 µM; in assay [2], “Phenotype: Inactive; Curve_Description: None”.
Turning to `COc1cc2ncn(-c3cc(OCc4ccccc4C(F)(F)F)c(C(N)=O)s3)c2cc1OC` [GW843682X], the half-maximal activity concentration (AC50) result in assay [1] and in assay [2] was “Phenotype: Inactive; Curve_Description: None” each time.
Consider `COc1cc2ncn(-c3cc(OCc4ccccc4C(F)(F)F)c(C(=O)N(C)C)s3)c2cc1OC` [GSK-1030062A], for which the AC50 in assay [1] (read-out: AC50) is 23.1 µM; in assay [2], “Phenotype: Inactive; Curve_Description: None”.
Turning to `O=C(Nc1n[nH]c2cc(-c3cc(F)ccc3F)ccc12)C1CC1`, the AC50 result in assay [1] is “Phenotype: Inactive; Curve_Description: None”; in assay [2] (read-out: AC50) it was 16.3 µM.
Turning to `COC(=O)c1ccc2c(c1)C(=Cc1cc(Br)c(O)c(Br)c1)C(=O)N2` [GW405841X], the AC50 is 13 µM in assay [1] (read-out: AC50) and 20.6 µM in assay [2] (read-out: AC50).
As for `CN(C)c1ccc2c(c1)/C(=C/Nc1ccc(S(N)(=O)=O)cc1)C(=O)N2` [GW416469X], the AC50 was 5.8 µM in assay [1] (read-out: AC50) and “Phenotype: Inactive; Curve_Description: None” in assay [2].
For the compound `FC(F)(F)c1ccc(-c2nn3ncccc3c2-c2ccnc(Nc3ccc4c(c3)OCCO4)n2)cc1` [GW828525X], the AC50 entry in assay [1] and in assay [2] was “Phenotype: Inactive; Curve_Description: None” in each case.
Take `CNC(=O)c1cc(-c2ccc(F)cc2)cc(-c2ccc(S(=O)(=O)N3CCCC3)cc2)c1N` [GSK-635416A]: the figures for the AC50 entry in assay [1] and in assay [2] were “Phenotype: Activator; Curve_Description: None” and “Phenotype: Inactive; Curve_Description: None”, respectively.
With `CN1CCC(n2cnc(-c3ccc(F)cc3)c2-c2ccnc(N)n2)CC1`, the AC50 entry in assay [1] and in assay [2] was “Phenotype: Inactive; Curve_Description: None” in each case.
Consider `COc1cc(N2CCN(C(C)C)CC2)ccc1Nc1nc(Nc2ccc(F)cc2C(=O)NC[C@@H](O)CO)c2cc[nH]c2n1` [GSK-1392956A], for which the AC50 result in assay [1] and in assay [2] was “Phenotype: Inactive; Curve_Description: None” in each case.
Turning to `C[C@@H](Oc1cc(-n2cnc3ccc(OC[C@@H](O)CO)cc32)sc1C(N)=O)c1ccccc1Cl` [GSK-978744A], the AC50 result in assay [1] and in assay [2] was “Phenotype: Inactive; Curve_Description: None” in each case.
For `NCc1ccc(-n2c(-c3nonc3N)nc3cnccc32)cc1`, the AC50 in assay [1] (read-out: AC50) was 41.1 µM; in assay [2], “Phenotype: Inactive; Curve_Description: None”.
Take `NC(=O)c1sc(-n2cnc3ccccc32)cc1OCc1ccccc1Br` [GSK-1023156A]: the AC50 was 25.9 µM in assay [1] (read-out: AC50) and “Phenotype: Inactive; Curve_Description: None” in assay [2].
For the compound `COc1ccc(-c2nn3ncccc3c2-c2ccnc(Nc3cccc(C(F)(F)F)c3)n2)cc1` [GW827105X], the half-maximal activity concentration (AC50) entry in assay [1] and in assay [2] was “Phenotype: Inactive; Curve_Description: None” in each case.
For the compound `COC(=O)Nc1nc2cc(Oc3ccc(NC(=O)Nc4cccc(Br)c4)cc3)ccc2[nH]1.Cl` [GW694234A], the AC50 result in assay [1] and in assay [2] was “Phenotype: Inactive; Curve_Description: None” throughout.
As to `CN(C)CCOc1ccc(-c2cc(-c3ccc4c(c3)CCC4=NO)c(-c3ccncc3)o2)cc1.Cl`, the AC50 entry in assay [1] and in assay [2] was “Phenotype: Inactive; Curve_Description: None” each time.
Turning to `O=C(O)C(F)(F)F.O=C(O[C@H]1CN[C@H](C#Cc2cc3ncnc(Nc4ccc(Cc5ccccc5)cc4)c3s2)C1)N1CCOCC1` [GSK-238583A], the AC50 is 23.1 µM in assay [1] (read-out: AC50) and “Phenotype: Inactive; Curve_Description: None” in assay [2].
Regarding `CS(=O)(=O)Nc1ccc(-c2ccc3c(NC(=O)C4CC4)n[nH]c3c2)cc1`, the AC50 entry in assay [1] is “Phenotype: Inactive; Curve_Description: None”; in assay [2] (read-out: AC50), 20.6 µM.
As to `Cc1ccc(O)cc1Nc1ccnc2ccc(S(C)(=O)=O)cc12` [GW559768X], the AC50 entry in assay [1] is “Phenotype: Inactive; Curve_Description: None”; in assay [2] (read-out: AC50) it was 41.1 µM.
Take `Nc1nccc(C#Cc2cncnc2Nc2ccc(OCc3cccc(F)c3)c(Cl)c2)n1` [GW799251X]: the figures for the AC50 result in assay [1] and in assay [2] (read-out: AC50) were “Phenotype: Inactive; Curve_Description: None” and 14.6 µM, respectively.
